# Values of other authors in patent US20210230662A1, “Methods for the Treatment of Solid Tumor Cancers Using Illudins and Biomarkers” (Lantern Pharma Inc., priority 2018, published 2021).
# Tests used:
# normal cells = details: at certain doses
# tumor cells = details: at certain doses
compound,measurement,setting,value
"CC1=C(CO)C2=C(C)C3(CC3)[C@@](C)(O)C(=O)C2=C1 [Irofulven, HydroxyMethylAcylfulvene]",response of normal cells to the cell-killing drug,normal cells,marginal response
same,susceptibility of tumor cells to dual damaging activity,tumor cells,highly susceptible
